Laboratory results taken from patent US11666558B2, “Methods of treating intraocular pressure with activators of Tie-2” (EyePoint Pharmaceuticals, Inc., priority 2015, dated 2023).
“And” between values parts separate entries of the source, which are not always exact repeats. Equal entries are not always repeated. Where two headings read alike, the source gives them in different places.

Assay: Ocular tissue concentrations (aqueous humor, vitreous humor, iris, retina, choroid, cornea) after topical ocular, subcutaneous and intravitreal administration
Format: in vivo, New Zealand White rabbits
Method: To measure the concentration of Compound 1 in plasma and ocular tissues following topical ocular, subcutaneous, and intravitreal administration, New Zealand White rabbits were administered Compound 1, and plasma and ocular samples were collected at pre-determined time points. Compound 1 formulations were prepared fresh on each day of dosing.
Ocular tissue samples from both eyes of each animal were collected and weights were recorded. Plasma and ocular tissue sample concentrations of Compound 1 were determined by LC-MS/MS.
New Zealand White rabbits weighing 2.5 to 3.5 kg were used on this study. Rabbits were housed one per cage. Animals were not fasted and only healthy animals with no ocular illness were used. Two rabbits per group were sacrificed at each of four ocular tissue sampling time points for a total of eight rabbits per group.
Animals were anesthetized for ocular (topical) and intravitreal dosing following the 12IA7 IACUC protocol. Each rabbit received a bolus dose of test formulation either via topical ocular administration 3 times daily on Days 1 and 2 (at 0, 6, and 12 hours), and once on Day 3 (at 0 hours) into both eyes; via intravitreal administration into both eyes once on Day 1 (at 0 hours); or via subcutaneous administration 2 times daily on Days 1 and 2 (at 0 and 8 hours) and once daily on Day 3 (at 0 hours). Doses were given within an approximately 1 hour window each day where applicable.
On Day 1, for intravitreal administration, or on Day 3, for topical ocular and subcutaneous administration, at the appropriate ocular tissue collection time points, animals were euthanized and both eyes were enucleated immediately. Following enucleation, each eye was rinsed with phosphate-buffered saline. Ocular tissue samples from both eyes of each animal were collected at predetermined time points and weights were recorded. All the samples were frozen immediately on dry ice, and stored at −60° C. to −80° C. pending bioanalysis.
An LC-MS/MS method was developed for the determination of Compound 1 in rabbit aqueous tissues (plasma, aqueous and vitreous humor) and solid ocular tissue samples. A pre-study standard curve was analyzed to determine the specificity, range, and lower limit of quantitation of the method. Plasma and tissue homogenate study samples were extracted and analyzed. All the samples were treated identically to the standards.
One eight-point standard curve was used in each analytical batch. To be accepted, each batch must have had at least five of eight standards with accuracy within ±20% of nominal, except at the lower limit of quantification (LLOQ), where ±25% was acceptable.
Concentration versus time data is plotted in FIGS. 3-16. All data are expressed as ng/g of the free drug. Samples that were below the limit of quantitation (0.2 ng/mL) were not used in the calculation of averages.

[1] = Group 3 subcutaneous 5 mg/kg, 0.5 hr
[2] = Group 3 subcutaneous 5 mg/kg, 1.0 hr
[3] = Group 3 subcutaneous 5 mg/kg, 2.0 hr
[4] = Group 3 subcutaneous 5 mg/kg, 4.0 hr
[5] = Group 5 intravitreal 2.5 mg per eye, 6.0 hr
[6] = Group 5 intravitreal 2.5 mg per eye, 24 hr
[7] = Group 5 intravitreal 2.5 mg per eye, 48 hr
[8] = Group 5 intravitreal 2.5 mg per eye, 72 hr

With `COC(=O)N[C@@H](Cc1ccccc1)C(=O)N[C@@H](Cc1ccc(NS(=O)(=O)O)cc1)c1csc(-c2cccs2)n1` [Compound 1 free acid] the “Average Peak Concentration, Vitreous Humor” value (Group 3 subcutaneous 5 mg/kg/dose, suspension) was 0.40 ng/g, the “aqueous humor Conc., individual eyes (OD, OS)” value [1] was “BLOQ (Below the limit of quantitation (0.2 ng/mL)) (2×) and 0.519 ng/mL and 1.90 ng/mL” and the “vitreous humor Conc., individual eyes (OD, OS)” value [1] was “BLOQ (Below the limit of quantitation (0.2 ng/mL)) and 0.261 ng/mL”. The “aqueous humor Conc., individual eyes (OD, OS)” value [2] was 0.485 ng/mL and 0.684 ng/mL and 0.229 ng/mL and 0.257 ng/mL, the “vitreous humor Conc., individual eyes (OD, OS)” value [2] was “BLOQ (Below the limit of quantitation (0.2 ng/mL))” and the “aqueous humor Conc., individual eyes (OD, OS)” value [3] was “BLOQ (Below the limit of quantitation (0.2 ng/mL)) and 0.594 ng/mL”. The “vitreous humor Conc., individual eyes (OD, OS)” value [3] was “BLOQ (Below the limit of quantitation (0.2 ng/mL))”, the “aqueous humor Conc., individual eyes (OD, OS)” value [4] was 0.229 ng/mL and BLOQ (Below the limit of quantitation (0.2 ng/mL)) and the “vitreous humor Conc., individual eyes (OD, OS)” value [4] was “BLOQ (Below the limit of quantitation (0.2 ng/mL))”. For the same compound, the “aqueous humor Conc., individual eyes (OD, OS)” value [5] was 34200 ng/mL and 15700 ng/mL and 23400 ng/mL and 32300 ng/mL, the “vitreous humor Conc., individual eyes (OD, OS)” value [5] was 592000 ng/mL and 625000 ng/mL and 432000 ng/mL and 270000 ng/mL and the “aqueous humor Conc., individual eyes (OD, OS)” value [6] was 3890 ng/mL and 6480 ng/mL and 5540 ng/mL and 1170 ng/mL. The “vitreous humor Conc., individual eyes (OD, OS)” value [6] was 528000 ng/mL and 491000 ng/mL and 320000 ng/mL, the “aqueous humor Conc., individual eyes (OD, OS)” value [7] was 476 ng/mL and 632 ng/mL and 1220 ng/mL and 1330 ng/mL and the “vitreous humor Conc., individual eyes (OD, OS)” value [7] was 75900 ng/mL and 148000 ng/mL and 68300 ng/mL and 99000 ng/mL. The “aqueous humor Conc., individual eyes (OD, OS)” value [8] was 145 ng/mL and 172 ng/mL and 94.1 ng/mL and 70.2 ng/mL, the “vitreous humor Conc., individual eyes (OD, OS)” value [8] was 96500 ng/mL and 101000 ng/mL and 16200 ng/mL and the concentration at 6 hr (New Zealand White, rabbit, aqueous humor, other: intravitreal, 2.5 mg per eye, Group 5 intravitreal 2.5 mg per eye, 6.0 hr, read-out: aqueous humor Average Conc.) was 26400 ng/g. For the same compound, the concentration at 24 hr (New Zealand White, rabbit, aqueous humor, other: intravitreal, 2.5 mg per eye, Group 5 intravitreal 2.5 mg per eye, 24 hr, read-out: aqueous humor Average Conc.) was 4270 ng/g, the concentration at 48 hr (New Zealand White, rabbit, aqueous humor, other: intravitreal, 2.5 mg per eye, Group 5 intravitreal 2.5 mg per eye, 48 hr, read-out: aqueous humor Average Conc.) was 915 ng/g and the concentration at 72 hr (New Zealand White, rabbit, aqueous humor, other: intravitreal, 2.5 mg per eye, Group 5 intravitreal 2.5 mg per eye, 72 hr, read-out: aqueous humor Average Conc.) was 120 ng/g. For the same compound, the concentration at 0.5 h (New Zealand White, rabbit, aqueous humor, subcutaneous, 5 mg/kg, Group 3 subcutaneous 5 mg/kg, 0.5 hr, read-out: aqueous humor Average Conc.) was 1.21 ng/g, the concentration at 1 h (New Zealand White, rabbit, aqueous humor, subcutaneous, 5 mg/kg, Group 3 subcutaneous 5 mg/kg, 1.0 hr, read-out: aqueous humor Average Conc.) was 0.41 ng/g and the concentration at 2 hr (New Zealand White, rabbit, aqueous humor, subcutaneous, 5 mg/kg, Group 3 subcutaneous 5 mg/kg, 2.0 hr, read-out: aqueous humor Average Conc.) was 0.66 ng/g. The concentration at 2 hr (New Zealand White, rabbit, aqueous humor, subcutaneous, 5 mg/kg, Group 3 subcutaneous 5 mg/kg, 2.0 hr, read-out: aqueous humor Conc., individual eyes (OD, OS)) was 0.601 ng/mL, the concentration at 4 hr (New Zealand White, rabbit, aqueous humor, subcutaneous, 5 mg/kg, Group 3 subcutaneous 5 mg/kg, 4.0 hr, read-out: aqueous humor Average Conc.) was 0.51 ng/g and the concentration at 4 hr (New Zealand White, rabbit, aqueous humor, subcutaneous, 5 mg/kg, Group 3 subcutaneous 5 mg/kg, 4.0 hr, read-out: aqueous humor Conc., individual eyes (OD, OS)) was 0.209 ng/mL. For the same compound, the concentration at 6 h (New Zealand White, rabbit, vitreous humor, other: intravitreal, 2.5 mg per eye, Group 5 intravitreal 2.5 mg per eye, 6.0 hr, read-out: vitreous humor Average Conc.) was 480000 ng/g, the concentration at 24 h (New Zealand White, rabbit, vitreous humor, other: intravitreal, 2.5 mg per eye, Group 5 intravitreal 2.5 mg per eye, 24 hr, read-out: vitreous humor Average Conc.) was 409000 ng/g and the concentration at 24 h (New Zealand White, rabbit, vitreous humor, other: intravitreal, 2.5 mg per eye, Group 5 intravitreal 2.5 mg per eye, 24 hr, read-out: vitreous humor Conc., individual eyes (OD, OS)) was 296000 ng/mL. It also gave a concentration at 48 h (New Zealand White, rabbit, vitreous humor, other: intravitreal, 2.5 mg per eye, Group 5 intravitreal 2.5 mg per eye, 48 hr, read-out: vitreous humor Average Conc.) of 97800 ng/g, a concentration at 72 h (New Zealand White, rabbit, vitreous humor, other: intravitreal, 2.5 mg per eye, Group 5 intravitreal 2.5 mg per eye, 72 hr, read-out: vitreous humor Average Conc.) of 65400 ng/g and a concentration at 0.5 hr (New Zealand White, rabbit, vitreous humor, subcutaneous, 5 mg/kg, Group 3 subcutaneous 5 mg/kg, 0.5 hr, read-out: vitreous humor Average Conc.) of 0.4 ng/g. The concentration at 0.5 hr (New Zealand White, rabbit, vitreous humor, subcutaneous, 5 mg/kg, Group 3 subcutaneous 5 mg/kg, 0.5 hr, read-out: vitreous humor Conc., individual eyes (OD, OS)) was 0.227 ng/mL, the concentration at 1 hr (New Zealand White, rabbit, vitreous humor, subcutaneous, 5 mg/kg, Group 3 subcutaneous 5 mg/kg, 1.0 hr, read-out: vitreous humor Average Conc.) was 0.41 ng/g and the concentration at 1 hr (New Zealand White, rabbit, vitreous humor, subcutaneous, 5 mg/kg, Group 3 subcutaneous 5 mg/kg, 1.0 hr, read-out: vitreous humor Conc., individual eyes (OD, OS)) was 0.407 ng/mL. For the same compound, the concentration at 4 hr (New Zealand White, rabbit, vitreous humor, subcutaneous, 5 mg/kg, Group 3 subcutaneous 5 mg/kg, 4.0 hr, read-out: vitreous humor Average Conc.) was 0.41 ng/g and the concentration at 4 hr (New Zealand White, rabbit, vitreous humor, subcutaneous, 5 mg/kg, Group 3 subcutaneous 5 mg/kg, 4.0 hr, read-out: vitreous humor Conc., individual eyes (OD, OS)) was 0.408 ng/mL.
